Columns and labels:
[1] = HPTLC photostability of Parsol 1789 spotted with potential quencher molecules (methanol stock solutions), UVR exposure, densitometry; type: physicochemical; conditions: Parsol 1789 remaining on HPTLC plate after UVR 5.5 mW/cm^2 for 120 minutes; ratios by weight
Procedure: The method was based on spotting the HPTLC plates (in duplicate) with the sunscreen molecules of interest along with potential quencher molecules or formulations. The plate is then exposed to UVR (intensity 5.5 mW/cm^2) for 120 minutes. Following this the chromatographic separation was carried out using appropriate solvent system. Densitometry analysis is done to determine the amount of sunscreen degraded.
Stock solutions were prepared in methanol following the ratios as mentioned in the following table. 14 μL of stock solutions were loaded (3 mm width; 16 mm separation) on a 10×10 cm F254 HPTLC plate, using CAMAG LINOMAT 5 applicator equipped with a 100 μL micro-syringe (Hamilton, Switzerland). Ascending chromatography was performed at a distance of 85 mm in a TLC chamber using n-hexane-ethyl acetate 9:1 (v/v) as the mobile phase (˜10 mL). The plates were dried at room temperature and subjected to ultraviolet absorption densitometry scan. The concentration dependent fluorescent bands due to presence of sunscreens were detected with a linear scan at 310 or 357 nm, using Camag TLC Scanner 3, in the presence of deuterium source. […] 4-t-buty-4′-methoxdibenzoylmethane concentrations present on each lane were determined from densitogram peak areas; prior and after the sun exposure using Win CATS Planar chromatography manager software.

[2] = known phenolic antioxidants compared with theaflavin

| Mean Percent stability [1] [%] | Compound | stabilizing property for sunscreens [2] |
| --- | --- | --- |
| 61.9 | COc1ccc(C(=O)CC(=O)c2ccc(C(C)(C)C)cc2)cc1 [Example 1a, 4-t-butyl-4′-methoxydibenzoylmethane] | – |
| – | COC(=O)c1cc(O)c(O)c(O)c1 [methyl gallate] | did not provide the stabilizing property |
